According to US10426758B2, “Sibiriline derivatives for use for preventing and/or treating disorders associated with cellular necroptosis” (Institut National de la Sante et de la Recherche Medicale …, priority 2015, dated 2019):
pEC50: −log10 of the molar value.

Key:
L929AsFas cells = experiment: Anti-necroptotic effect, L929AsFas cells, FasL + zVAD, FACS of propidium iodide-stained nuclei; assay type: cell-based
Procedure: (§1) L929 cells, L929AsFas cells, Jurkat FADD-deficient cells (Jurkat FADD^−/−), U937 cells are pretreated for 1 h with increased concentrations of Sib (0, 5, 10, 20 μM) and then treated respectively with TNF-α (10 ng/ml)+zVAD (20 μM), FasL (200 ng/ml)+zVAD (20 μM), TNF-α (10 ng/ml), TRAIL (200 ng/ml)+zVAD (30 μM) or TRAIL (200 ng/ml)+zVAD (30 μM)+CHX (1 μg/ml). % of cell death is determined after 24 h and calculated by a FACS analysis of Propidium Iodide-stained nuclei. In each case, the EC50 is determined as well as the % of rescue from cell death.

[1] = tested on: Jurkat FADD-deficient cells (Jurkat FADD−/−); experiment: Anti-necroptotic effect, Jurkat FADD-deficient cells, TNF, FACS of propidium iodide-stained nuclei; assay type: cell-based, human
Procedure: as §1

U937 cells = experiment: Anti-necroptotic effect, U937 cells, TRAIL + zVAD + CHX, FACS of propidium iodide-stained nuclei; assay type: cell-based
Procedure: as §1

[2] = target: T1, Human RIPK1 full length GST-tagged (Homo sapiens, UniProt Q13546); experiment: RIPK1 autophosphorylation assay; assay type: biochemical; settings: radioactively labeled RIPK1, [γ-32P] ATP, 30 minutes at 30° C.
T1 construct: Human RIPK1 full length GST-tagged; made in house; host or cells: Sf9 insect cells (Bac-to-Bac baculovirus system)
T1 sequence (Q13546 1-671): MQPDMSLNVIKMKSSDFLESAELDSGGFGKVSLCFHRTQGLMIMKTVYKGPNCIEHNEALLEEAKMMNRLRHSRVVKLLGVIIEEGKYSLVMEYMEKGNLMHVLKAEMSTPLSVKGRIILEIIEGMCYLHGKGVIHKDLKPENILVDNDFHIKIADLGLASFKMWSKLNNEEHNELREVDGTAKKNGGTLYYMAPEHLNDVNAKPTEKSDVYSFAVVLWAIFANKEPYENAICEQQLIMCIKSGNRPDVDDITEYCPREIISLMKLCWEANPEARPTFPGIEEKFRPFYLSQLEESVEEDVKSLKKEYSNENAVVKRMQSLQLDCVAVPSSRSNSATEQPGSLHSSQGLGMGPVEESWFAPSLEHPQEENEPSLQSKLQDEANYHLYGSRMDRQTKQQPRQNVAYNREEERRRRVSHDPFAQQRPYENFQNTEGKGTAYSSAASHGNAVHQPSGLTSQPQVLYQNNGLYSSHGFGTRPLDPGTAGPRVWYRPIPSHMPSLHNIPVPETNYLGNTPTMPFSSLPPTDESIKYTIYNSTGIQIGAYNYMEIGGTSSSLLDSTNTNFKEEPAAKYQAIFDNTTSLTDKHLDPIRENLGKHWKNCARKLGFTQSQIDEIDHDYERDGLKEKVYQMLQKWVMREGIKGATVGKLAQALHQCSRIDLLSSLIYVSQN
Procedure: Human RIPK1 full length GST-tagged was baculovirally expressed in Sf9 cells according to manufacturer's instructions (Bac-to-Bac expression system, Invitrogen) and purified using gluthation-sepharose beads (GE Healthcare). The elution was made in 50 mM Tris-HCl, pH 8.0 buffer supplemented with 30 mM reduced gluthatione (Sigma). The protocol used to detect the enzymatic activity is adapted from Miao and Degterev (Methods Mol. Biol. 2009, 559, 79-93). Kinase reaction was initiated mixing 5 μl of eluted RIPK1, 5 μl of 3× kinase reaction buffer (5 mM MOPS pH 7.2, 2.5 mM β-glycerophosphate, 4 mM MgCl2, 2.5 mM MnCl2, 1 mM EGTA, 0.4 mM EDTA, 50 μg/ml BSA, 0.05 mM DTT), 2 μl H2O and 3 μl of the tested molecule. The mixture was kept on ice for 10 minutes. During the incubation, the ATP solution was prepared by mixing 5 μl of 3× kinase reaction buffer, 4 μl H2O, 6 μl cold ATP at 150 μM and 2 μCi of [γ-^32P] ATP. Add the ATP solution and the tested inhibitor to the kinase and incubate for 30 minutes at 30° C. To stop the enzymatic reaction, 5 μl of loading buffer were added and solution was heated for 3 minutes at 95° C. 25 μl of each reaction were loaded per well in pre-cast NuPage 12% Bis-Tris gel (Life Technology). Autophosphorylated RIPK1 band was visualized on radiographic film after 6 h exposition at −80° C.

[3] = tested on: cytochrome P450 CYP1A enzymes in HepG2 cells; experiment: Ethoxyresorufin O-deethylase (EROD) activity in HepG2 cells; assay type: in vitro ADME, human; settings: 10 μM, 24 hours
Procedure: EROD activity corresponds to the O-deethylation of ethoxyresorufin and is mainly supported by cytochrome P450 CYP1A enzymes in HepG2 cells. Induction of CYP1A is mediated through the binding of xenobiotics to a cytosolic aryl hydrocarbon receptor AhR.
Human liver cancer cell lines HepG2 were treated with 10 μM of Sib, Nec-1 or Nec-1s for 24 hours. After treatment, HepG2 cells were incubated in PBS containing 5 mM ethoxyresorufin and kinetic reading was performed at 37° C. with spectrofluorometer (SpectraMax Gemini SX) over a 15 min period.

[4] = tested on: murine model of acute hepatitis (concanavalin A-induced hepatitis); experiment: Concanavalin A-induced acute hepatitis in mice; assay type: in vivo, C57Bl/6 WT mice
Procedure: We use a murine model of acute hepatitis (concanavalin A-induced hepatitis) that depends on necroptosis induction (Jouan-Lanhouet et al. Semin. Cell. Dev. Biol. 2014, 35, 2-13). Sib is diluted in 50% PBS/50% DMSO.
C57Bl/6 WT mice were pre-treated or not with 3, 6 or 9 mg/kg Sib or 6.25 mg/kg Nec-1s injected by intraperitoneal route 1 hour before treatment or not with 12 mg/kg Con A for 10 h (intravenous route) (50% PBS/50% DMSO, n=5; 50% PBS/50% DMSO+Con A, n=5; 3 mg/kg Sib+Con A, n=5; 6 mg/kg Sib+Con A, n=5; 9 mg/kg Sib+Con A, n=5; 6.25 mg/kg Nec-1s+Con A, n=5).

inhibition of RIPK1 autophosphorylation [2]: dose-dependent inhibition
inhibition of RIPK1 autophosphorylation ([2]; listed as Sib): inhibit the RIPK1 autophosphorylation
induction of EROD activity [3]: do not induce EROD activity
Structure (SMILES): Oc1ccc(-c2cc3cccnc3[nH]2)cc1 [compound 2, 4-(1H-pyrrolo[2,3-b]pyridin-2-yl)phenol]
pEC50 (L929AsFas cells; 1 h pretreatment, cell death after 24 h): 5.62
% Rescue (L929AsFas cells; rescue from cell death, 24 h): 80%
pEC50 ([1]; Homo sapiens, 1 h pretreatment, cell death after 24 h): 5.92
% Rescue ([1]; rescue from cell death, 24 h): 90%
pEC50 (U937 cells; Homo sapiens, U-937, 1 h pretreatment, cell death after 24 h): 4.70
% Rescue (U937 cells; rescue from cell death, 24 h): 50%
AST and ALT levels and protection from Con A-induced hepatitis ([4]; Sib 9 mg/kg intraperitoneal 1 hour before 12 mg/kg Con A for 10 h): This protection is not observed
AST and ALT levels and protection from Con A-induced hepatitis ([4]; Sib 3 or 6 mg/kg intraperitoneal 1 hour before 12 mg/kg Con A for 10 h): has a tendency to decrease AST and ALT levels and to protect mice from Con A-induced hepatitis
serum aminotransaminases (ALT, AST) levels induced by ConA (figure legend) ([4]; dose of 3 mg/kg): decreases these serum transaminase levels
